Reference: patent US9636418B2 (priority 2013, dated 2017)
Where “and” joins values, the source holds several entries; their conditions need not be identical. Equal values may be shown once. Read-outs that look alike come from different tables or passages of the source.

Legend:
Assay in all cases: cell-based
hNav1.4 = hNav1.4 (Homo sapiens, UniProt P35499); details: for IC50: PatchXpress, read-out: PX hNav1.4 Tonic IC50
hNav1.5 = hNav1.5 (Homo sapiens, UniProt Q14524); details: PatchXpress; * = at high concentrations compound would wash off slowly or not at all; read-out: PX hNav1.5 Tonic IC50
hNav1.7 = hNav1.7 (Homo sapiens, UniProt Q15858); format: cell-based; details: PatchXpress, read-out: PX hNav1.7 Tonic IC50
[1] = * = at high concentrations compound would wash off slowly or not at all

Chain of hNav1.7 (Q15858 whole entry): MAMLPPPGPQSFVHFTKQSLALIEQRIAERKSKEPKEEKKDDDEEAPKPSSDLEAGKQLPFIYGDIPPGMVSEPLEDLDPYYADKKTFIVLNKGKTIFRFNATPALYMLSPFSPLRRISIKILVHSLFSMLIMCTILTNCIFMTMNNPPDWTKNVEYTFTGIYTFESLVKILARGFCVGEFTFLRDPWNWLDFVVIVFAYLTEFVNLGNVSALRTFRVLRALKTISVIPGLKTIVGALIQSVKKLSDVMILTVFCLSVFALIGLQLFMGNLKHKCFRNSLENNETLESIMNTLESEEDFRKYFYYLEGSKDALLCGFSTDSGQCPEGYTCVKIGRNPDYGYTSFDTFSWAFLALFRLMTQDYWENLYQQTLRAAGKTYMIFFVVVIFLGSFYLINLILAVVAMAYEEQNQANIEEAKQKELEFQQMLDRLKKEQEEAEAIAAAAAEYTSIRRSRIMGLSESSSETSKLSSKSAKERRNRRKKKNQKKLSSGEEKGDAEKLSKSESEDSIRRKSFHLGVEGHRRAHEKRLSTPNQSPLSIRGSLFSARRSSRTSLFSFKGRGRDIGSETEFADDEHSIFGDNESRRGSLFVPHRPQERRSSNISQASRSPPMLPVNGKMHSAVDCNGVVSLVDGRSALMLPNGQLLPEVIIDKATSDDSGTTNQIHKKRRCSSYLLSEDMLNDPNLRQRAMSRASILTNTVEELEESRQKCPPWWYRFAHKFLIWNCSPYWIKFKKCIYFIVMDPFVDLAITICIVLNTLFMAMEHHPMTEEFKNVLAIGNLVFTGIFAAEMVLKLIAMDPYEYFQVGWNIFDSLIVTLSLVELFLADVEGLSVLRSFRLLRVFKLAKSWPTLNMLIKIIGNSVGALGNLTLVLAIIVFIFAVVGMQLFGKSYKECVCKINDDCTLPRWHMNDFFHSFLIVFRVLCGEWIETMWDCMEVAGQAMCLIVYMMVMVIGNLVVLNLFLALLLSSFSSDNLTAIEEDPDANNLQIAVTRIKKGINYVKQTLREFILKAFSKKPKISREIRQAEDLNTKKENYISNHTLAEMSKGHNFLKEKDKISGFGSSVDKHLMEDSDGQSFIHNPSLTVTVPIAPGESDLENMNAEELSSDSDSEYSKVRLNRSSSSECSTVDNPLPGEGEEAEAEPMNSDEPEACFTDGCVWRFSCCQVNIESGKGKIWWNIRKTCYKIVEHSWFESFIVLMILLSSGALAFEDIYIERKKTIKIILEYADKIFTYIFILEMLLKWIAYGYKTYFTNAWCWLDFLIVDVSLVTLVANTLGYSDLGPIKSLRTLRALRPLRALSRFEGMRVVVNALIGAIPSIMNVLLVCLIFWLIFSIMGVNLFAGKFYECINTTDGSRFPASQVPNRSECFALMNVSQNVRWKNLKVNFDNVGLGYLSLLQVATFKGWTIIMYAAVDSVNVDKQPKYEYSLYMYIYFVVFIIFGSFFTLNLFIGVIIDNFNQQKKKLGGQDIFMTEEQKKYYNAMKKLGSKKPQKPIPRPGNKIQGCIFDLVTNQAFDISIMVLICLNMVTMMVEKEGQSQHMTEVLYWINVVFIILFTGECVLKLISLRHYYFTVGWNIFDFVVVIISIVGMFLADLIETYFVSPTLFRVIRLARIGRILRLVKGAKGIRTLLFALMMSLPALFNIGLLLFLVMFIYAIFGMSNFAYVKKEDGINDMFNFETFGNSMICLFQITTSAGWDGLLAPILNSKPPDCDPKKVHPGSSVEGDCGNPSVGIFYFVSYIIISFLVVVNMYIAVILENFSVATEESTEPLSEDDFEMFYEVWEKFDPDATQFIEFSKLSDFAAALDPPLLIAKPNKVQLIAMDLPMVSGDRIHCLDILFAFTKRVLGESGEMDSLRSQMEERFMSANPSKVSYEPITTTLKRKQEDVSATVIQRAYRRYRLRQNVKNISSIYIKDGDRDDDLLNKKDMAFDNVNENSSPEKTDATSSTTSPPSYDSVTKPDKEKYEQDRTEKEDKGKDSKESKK
Chain of hNav1.4 (P35499 whole entry): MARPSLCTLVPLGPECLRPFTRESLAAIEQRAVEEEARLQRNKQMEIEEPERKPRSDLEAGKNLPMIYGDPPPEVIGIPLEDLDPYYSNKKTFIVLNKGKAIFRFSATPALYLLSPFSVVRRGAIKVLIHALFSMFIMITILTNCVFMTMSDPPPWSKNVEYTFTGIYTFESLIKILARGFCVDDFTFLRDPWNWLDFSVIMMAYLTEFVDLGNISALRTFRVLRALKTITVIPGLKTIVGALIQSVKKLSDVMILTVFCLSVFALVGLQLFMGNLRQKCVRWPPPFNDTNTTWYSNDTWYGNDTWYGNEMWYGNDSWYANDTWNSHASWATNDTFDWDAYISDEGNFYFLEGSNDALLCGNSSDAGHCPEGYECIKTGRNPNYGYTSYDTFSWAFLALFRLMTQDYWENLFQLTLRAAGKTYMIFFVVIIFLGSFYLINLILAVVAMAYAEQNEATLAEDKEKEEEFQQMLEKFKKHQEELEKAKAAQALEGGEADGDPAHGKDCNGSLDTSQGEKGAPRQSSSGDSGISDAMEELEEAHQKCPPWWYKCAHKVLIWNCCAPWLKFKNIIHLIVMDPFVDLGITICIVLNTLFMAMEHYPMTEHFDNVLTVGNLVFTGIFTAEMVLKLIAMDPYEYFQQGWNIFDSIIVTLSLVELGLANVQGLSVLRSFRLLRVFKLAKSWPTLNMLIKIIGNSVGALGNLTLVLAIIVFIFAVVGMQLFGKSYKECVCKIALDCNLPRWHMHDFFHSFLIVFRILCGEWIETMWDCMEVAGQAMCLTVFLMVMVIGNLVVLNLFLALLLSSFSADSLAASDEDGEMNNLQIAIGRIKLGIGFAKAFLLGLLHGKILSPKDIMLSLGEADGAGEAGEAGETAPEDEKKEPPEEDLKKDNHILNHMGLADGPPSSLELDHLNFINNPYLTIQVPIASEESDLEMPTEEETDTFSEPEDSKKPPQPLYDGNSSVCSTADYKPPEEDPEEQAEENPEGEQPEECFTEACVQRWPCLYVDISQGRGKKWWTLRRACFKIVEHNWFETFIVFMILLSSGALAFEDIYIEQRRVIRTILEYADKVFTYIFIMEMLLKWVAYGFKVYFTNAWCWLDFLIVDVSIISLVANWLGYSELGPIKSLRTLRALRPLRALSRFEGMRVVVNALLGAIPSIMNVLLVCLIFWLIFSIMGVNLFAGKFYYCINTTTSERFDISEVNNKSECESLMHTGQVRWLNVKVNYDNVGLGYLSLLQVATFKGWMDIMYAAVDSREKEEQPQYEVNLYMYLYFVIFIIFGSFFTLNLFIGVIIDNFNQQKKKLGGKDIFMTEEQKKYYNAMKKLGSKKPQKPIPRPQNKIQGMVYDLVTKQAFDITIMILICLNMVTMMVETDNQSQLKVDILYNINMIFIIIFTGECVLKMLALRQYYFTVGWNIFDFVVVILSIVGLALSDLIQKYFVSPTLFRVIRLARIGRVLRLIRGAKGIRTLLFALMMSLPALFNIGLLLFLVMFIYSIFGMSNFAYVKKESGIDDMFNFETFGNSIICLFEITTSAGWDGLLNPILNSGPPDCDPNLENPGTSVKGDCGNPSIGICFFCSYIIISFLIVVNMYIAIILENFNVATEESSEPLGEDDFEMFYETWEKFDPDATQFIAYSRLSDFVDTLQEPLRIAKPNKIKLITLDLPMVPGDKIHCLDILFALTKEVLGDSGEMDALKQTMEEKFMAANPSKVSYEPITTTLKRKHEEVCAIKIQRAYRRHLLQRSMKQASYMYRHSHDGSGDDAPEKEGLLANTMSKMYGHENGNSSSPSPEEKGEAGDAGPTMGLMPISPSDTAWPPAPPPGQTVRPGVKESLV

CCCC[C@@H]1NC(=O)[C@H](Cc2c[nH]c3ccccc23)NC(=O)[C@H](CCCCN)NC(=O)[C@H](CCC(N)=O)NC(=O)[C@@H](NC(=O)[C@H](Cc2ccc(O)cc2)NC(=O)[C@@H](N)Cc2cn(CCOCCOCCOCCOCCOCCOCCOCCOCCOCCOCCOCCOCCOCCOCCOCCOCCOCCOCCOCCOCCOCCOCCOCCNC(=O)c3cc(CNC(=O)CSCc4ccccc4)cc(C(=O)NCCOCCOCCOCCOCCOCCOCCOCCOCCOCCOCCOCCOCCOCCOCCOCCOCCOCCOCCOCCOCCOCCOCCOCCn4cc(C[C@H](N)C(=O)N[C@@H](Cc5ccc(O)cc5)C(=O)N[C@H]5CSSC[C@@H]6NC(=O)[C@@H]7CSSC[C@@H](C(=O)N[C@@H](CCCNC(=N)N)C(=O)N[C@@H](CCCCN)C(=O)N[C@H](C(=O)N[C@H](C(N)=O)[C@@H](C)CC)[C@@H](C)CC)NC(=O)[C@H](Cc8c[nH]c9ccccc89)NC(=O)[C@H](CC(C)C)NC(=O)[C@H](CCCCN)NC(=O)[C@H](CSSC[C@H](NC(=O)[C@H]([C@@H](C)O)NC(=O)[C@H](Cc8c[nH]c9ccccc89)NC(=O)[C@H](CCCC)NC(=O)[C@H](Cc8c[nH]c9ccccc89)NC(=O)[C@H](CCCCN)NC(=O)[C@H](CCC(N)=O)NC5=O)C(=O)N[C@@H](CC(=O)O)C(=O)N[C@@H](CO)C(=O)N[C@@H](CCCCN)C(=O)N[C@@H](CCCNC(=N)N)C(=O)N[C@@H](C)C(=O)N7)NC(=O)[C@H](CCCNC(=N)N)NC(=O)[C@H](CC(C)C)NC(=O)CNC(=O)[C@H](CCC(=O)O)NC6=O)nn4)c3)nn2)CSSC[C@@H]2NC(=O)[C@@H]3CSSC[C@@H](C(=O)N[C@@H](CCCNC(=N)N)C(=O)N[C@@H](CCCCN)C(=O)N[C@H](C(=O)N[C@H](C(N)=O)[C@@H](C)CC)[C@@H](C)CC)NC(=O)[C@H](Cc4c[nH]c5ccccc45)NC(=O)[C@H](CC(C)C)NC(=O)[C@H](CCCCN)NC(=O)[C@H](CSSC[C@H](NC(=O)[C@H]([C@@H](C)O)NC(=O)[C@H](Cc4c[nH]c5ccccc45)NC1=O)C(=O)N[C@@H](CC(=O)O)C(=O)N[C@@H](CO)C(=O)N[C@@H](CCCCN)C(=O)N[C@@H](CCCNC(=N)N)C(=O)N[C@@H](C)C(=O)N3)NC(=O)[C@H](CCCNC(=N)N)NC(=O)[C@H](CC(C)C)NC(=O)CNC(=O)[C@H](CCC(=O)O)NC2=O [Homodimeric Conjugate No. 2, Bis-{Atz(PEG23*)-[Nle6]JzTx-V(1-29)}-5-((2-(benzylthio)acetamido)methyl)isophthalamide] was tested, and the Nav1.4/Nav1.7 (hNav1.4; ratio of PX IC50 values) was 5 and 3 and the IC50 (hNav1.5) was 720 nM and 1180 nM.

Compound C#CC[C@H](N)C(=O)NCCCC[C@@H]1NC(=O)[C@H](CCCNC(=N)N)NC(=O)[C@H](CCCCN)NC(=O)[C@H](CO)NC(=O)[C@H](CC(=O)O)NC(=O)[C@@H]2CSSC[C@@H]3NC(=O)[C@H](CCC(=O)O)NC(=O)[C@H](CC(C)C)NC(=O)CNC(=O)[C@H](CCC(=O)O)NC(=O)[C@H](CSSC[C@H](NC(=O)[C@H](Cc4ccc(O)cc4)NC(=O)[C@@H](N)CC#N)C(=O)N[C@@H](CCC(N)=O)C(=O)N[C@@H](CCCCN)C(=O)N[C@@H](Cc4c[nH]c5ccccc45)C(=O)N[C@@H](CCCC)C(=O)N[C@@H](Cc4c[nH]c5ccccc45)C(=O)N[C@@H]([C@@H](C)O)C(=O)N2)NC(=O)[C@H](CSSC[C@@H](C(=O)N[C@@H](CCCNC(=N)N)C(=O)N[C@@H](CCCCN)C(=O)N[C@@H](Cc2ccc(O)cc2)C(=O)N[C@H](C(N)=O)[C@@H](C)CC)NC(=O)[C@H](Cc2c[nH]c4ccccc24)NC(=O)[C@H](CC(C)C)NC(=O)[C@H](CCCCN)NC3=O)NC1=O [compound 394] has an IC50 (hNav1.4; tonic block) of 964 nM and an IC50 (hNav1.7; tonic block) of 0.05 nM.

With C#CC[C@@H]1NC(=O)[C@@H]2CSSC[C@H](NC(=O)[C@H](Cc3ccc(O)cc3)NC(=O)[C@@H](N)CC#N)C(=O)N[C@@H](CCC(N)=O)C(=O)N[C@@H](CCCCN)C(=O)N[C@@H](Cc3c[nH]c4ccccc34)C(=O)N[C@@H](CCCC)C(=O)N[C@@H](Cc3c[nH]c4ccccc34)C(=O)N[C@@H]([C@@H](C)O)C(=O)N[C@H]3CSSC[C@H](NC(=O)[C@H](CCC(=O)O)NC(=O)[C@H](CC(C)C)NC(=O)CNC1=O)C(=O)N[C@@H](CCCCN)C(=O)N[C@@H](CC(C)C)C(=O)N[C@@H](Cc1c[nH]c4ccccc14)C(=O)N[C@H](C(=O)N[C@@H](CCCNC(=N)N)C(=O)N[C@@H](CCCCN)C(=O)N[C@@H](Cc1ccc(O)cc1)C(=O)N[C@H](C(N)=O)[C@@H](C)CC)CSSC[C@H](NC(=O)[C@H](C)NC(=O)[C@H](CCCNC(=N)N)NC(=O)[C@H](CCCCN)NC(=O)[C@H](CO)NC(=O)[C@H](CC(=O)O)NC3=O)C(=O)N2 [compound 397] the IC50 (hNav1.4; tonic block) was 1760 nM, the Nav1.4/Nav1.7 (hNav1.4; ratio of PX tonic IC50 values) was 20 and the IC50 (hNav1.7; tonic block) was 87.1 nM.

CCCC[C@@H]1NC(=O)[C@H](Cc2c[nH]c3ccccc23)NC(=O)[C@H](CCCCN)NC(=O)[C@H](CCC(N)=O)NC(=O)[C@@H](NC(=O)[C@@H](N)Cc2ccc(O)cc2)CSSC[C@@H]2NC(=O)[C@@H]3CSSC[C@@H](C(=O)N[C@@H](CCCNC(=N)N)C(=O)N[C@@H](CCCCN)C(=O)N[C@@H](CCC(=O)O)C(=O)N[C@H](C(N)=O)[C@@H](C)CC)NC(=O)[C@H](Cc4c[nH]c5ccccc45)NC(=O)[C@H](CC(C)C)NC(=O)[C@H](CCCCN)NC(=O)[C@H](CSSC[C@H](NC(=O)[C@H]([C@@H](C)O)NC(=O)[C@H](Cc4c[nH]c5ccccc45)NC1=O)C(=O)N[C@@H](CC(=O)O)C(=O)N[C@@H](CO)C(=O)N[C@@H](CCCCN)C(=O)N[C@@H](CCCNC(=N)N)C(=O)N[C@@H](C)C(=O)N3)NC(=O)[C@H](CCCNC(=N)N)NC(=O)[C@H](CC(C)C)NC(=O)CNC(=O)[C@H](Cc1cn(CCCOCCOCCOCCOCCOCCOCCOCCOCCOCCOCCN)nn1)NC2=O [compound 406] was tested, and the IC50 (hNav1.4; [1]) was 65.9 nM, the Nav1.4/Nav1.7 (hNav1.4; ratio of PX IC50 values) was 11 and the IC50 (hNav1.7; [1]) was 5.88 nM.

CCCC[C@@H]1NC(=O)[C@H](Cc2c[nH]c3ccccc23)NC(=O)[C@H](CCCCN)NC(=O)[C@H](CCC(N)=O)NC(=O)[C@@H](NC(=O)[C@@H](N)Cc2cn(CCCOCCOCCOCCOCCOCCOCCOCCOCCOCCOCCN)nn2)CSSC[C@@H]2NC(=O)[C@@H]3CSSC[C@@H](C(=O)N[C@@H](CCCNC(=N)N)C(=O)N[C@@H](CCCCN)C(=O)N[C@H](C(=O)N[C@H](C(N)=O)[C@@H](C)CC)[C@@H](C)CC)NC(=O)[C@H](Cc4c[nH]c5ccccc45)NC(=O)[C@H](CC(C)C)NC(=O)[C@H](CCCCN)NC(=O)[C@H](CSSC[C@H](NC(=O)[C@H]([C@@H](C)O)NC(=O)[C@H](Cc4c[nH]c5ccccc45)NC1=O)C(=O)N[C@@H](CC(=O)O)C(=O)N[C@@H](CO)C(=O)N[C@@H](CCCCN)C(=O)N[C@@H](CCCNC(=N)N)C(=O)N[C@@H](C)C(=O)N3)NC(=O)[C@H](CCC(=O)O)NC(=O)[C@H](CC(C)C)NC(=O)CNC(=O)[C@H](CCC(=O)O)NC2=O [compound 407] showed an IC50 (hNav1.4; [1]) of 549 nM and an IC50 (hNav1.7; [1]) of 6.48 nM.

In the case of C#CC[C@H](N)C(=O)NCCOCCOCCOCCOCCC(=O)NCCCC[C@@H]1NC(=O)[C@H](CCCNC(=N)N)NC(=O)[C@H](CCCCN)NC(=O)[C@H](CO)NC(=O)[C@H](CC(=O)O)NC(=O)[C@@H]2CSSC[C@@H]3NC(=O)[C@H](CCCNC(=N)N)NC(=O)[C@H](CC(C)C)NC(=O)CNC(=O)[C@H](CCC(=O)O)NC(=O)[C@H](CSSC[C@H](NC(=O)[C@H](Cc4ccc(O)cc4)NC(=O)[C@@H](N)CCC)C(=O)N[C@@H](CCC(N)=O)C(=O)N[C@@H](CCCCN)C(=O)N[C@@H](Cc4c[nH]c5ccccc45)C(=O)N[C@@H](CCCC)C(=O)N[C@@H](Cc4c[nH]c5ccccc45)C(=O)N[C@@H]([C@@H](C)O)C(=O)N2)NC(=O)[C@H](CSSC[C@@H](C(=O)N[C@@H](CCCNC(=N)N)C(=O)N[C@@H](CCCCN)C(=O)N[C@H](C(=O)N[C@H](C(N)=O)[C@@H](C)CC)[C@@H](C)CC)NC(=O)[C@H](Cc2c[nH]c4ccccc24)NC(=O)[C@H](CC(C)C)NC(=O)[C@H](CCCCN)NC3=O)NC1=O [compound 432], the IC50 (hNav1.4; tonic block) is reported as 16.5 nM, the Nav1.4/Nav1.7 (hNav1.4; ratio of PX tonic IC50 values) is reported as 12 and the IC50 (hNav1.7; tonic block) is reported as 1.43 nM and 1.56 nM.

Work on C#CC[C@H](N)C(=O)NCCCC[C@@H]1NC(=O)[C@H](CCCNC(=N)N)NC(=O)[C@H](CCCCN)NC(=O)[C@H](CO)NC(=O)[C@H](CC(=O)O)NC(=O)[C@@H]2CSSC[C@@H]3NC(=O)[C@H](CCCNC(=N)N)NC(=O)[C@H](CC(C)C)NC(=O)CNC(=O)[C@H](CCC(=O)O)NC(=O)[C@H](CSSC[C@H](NC(=O)[C@H](Cc4ccc(O)cc4)NC(=O)[C@@H](N)CCC)C(=O)N[C@@H](CCC(N)=O)C(=O)N[C@@H](CCCCN)C(=O)N[C@@H](Cc4c[nH]c5ccccc45)C(=O)N[C@@H](CCCC)C(=O)N[C@@H](Cc4c[nH]c5ccccc45)C(=O)N[C@@H]([C@@H](C)O)C(=O)N2)NC(=O)[C@H](CSSC[C@@H](C(=O)N[C@@H](CCCNC(=N)N)C(=O)N[C@@H](CCCCN)C(=O)N[C@@H](CCC(=O)O)C(=O)N[C@H](C(N)=O)[C@@H](C)CC)NC(=O)[C@H](Cc2c[nH]c4ccccc24)NC(=O)[C@H](CC(C)C)NC(=O)[C@H](CCCCN)NC3=O)NC1=O [compound 435] yielded an IC50 (hNav1.4; tonic block) of 217 nM, a Nav1.4/Nav1.7 (hNav1.4; ratio of PX tonic IC50 values) of 99 and an IC50 (hNav1.7; tonic block) of 2.19 nM.

For C#CC[C@H](N)C(=O)NCCCC[C@@H]1NC(=O)[C@H](CCCNC(=N)N)NC(=O)[C@H](CCCCN)NC(=O)[C@H](CO)NC(=O)[C@H](CC(=O)O)NC(=O)[C@@H]2CSSC[C@@H]3NC(=O)[C@H](CCCNC(=N)N)NC(=O)[C@H](CC(C)C)NC(=O)CNC(=O)[C@H](CCC(=O)O)NC(=O)[C@H](CSSC[C@H](NC(=O)[C@H](Cc4ccc(O)cc4)NC(=O)[C@@H](N)CCC)C(=O)N[C@@H](CCC(N)=O)C(=O)N[C@@H](CCCCN)C(=O)N[C@@H](Cc4c[nH]c5ccccc45)C(=O)N[C@@H](CC(C)C)C(=O)N[C@@H](Cc4c[nH]c5ccccc45)C(=O)N[C@@H]([C@@H](C)O)C(=O)N2)NC(=O)[C@H](CSSC[C@@H](C(=O)N[C@@H](CCCNC(=N)N)C(=O)N[C@@H](CCCCN)C(=O)N[C@H](C(=O)N[C@H](C(N)=O)[C@@H](C)CC)[C@@H](C)CC)NC(=O)[C@H](Cc2c[nH]c4ccccc24)NC(=O)[C@H](CC(C)C)NC(=O)[C@H](CCCCN)NC3=O)NC1=O [compound 438], the IC50 (hNav1.4; tonic block) was 16.1 nM, the Nav1.4/Nav1.7 (hNav1.4; ratio of PX tonic IC50 values) was 7 and the IC50 (hNav1.7; tonic block) was 2.38 nM and 1.57 nM.
